Measurements published in publication PMC6567057, “Pharmacokinetic, metabolic stability, plasma protein binding and CYP450s inhibition/induction assessment studies of N-(2-pyridylmethyl)-2-hydroxiymethyl-1-pyrrolidinyl-4-(3-chloro-4-methoxy-benzylamino)-5-pyrimidine-carboxamide as potential type 5 phosphodiesterase inhibitors” (Animal Cells and Systems, 2019).

Legend:
human plasma proteins = experiment: Plasma protein binding by equilibrium dialysis (human); assay type: in vitro ADME; settings: human plasma, equilibrium dialysis, n = 3
Protocol: (§1) The phosphate buffer (100 mM) and sodium hydroxide solution (1.0 M) were prepared in deionized water. […] PPB was determined by equilibrium dialysis method. An aliquot (150 μL) of NHPPC spiked plasma and phosphate buffer (pH 7.4) was added into the donor side and the receiver side of each designated well. The plate was covered with adhesive sealing film to prevent evaporation and placed in a water-bath shaker kept at 37°C for 6 h with a rate of 50 rpm. […] At the end of 6 h, aliquots were taken from each side of each well (n = 3) and kept in a −20°C freezer prior to analysis. The stability, device recovery and PPB were calculated using the following equations: Remaining at 6 h (%)=C6h/C0h×100%, Device recovery (%)=CDonor+CReceiver/C6h×100%, PPB (%)=CDonor−CReceiver/CDonor×100%.

rat plasma proteins = experiment: Plasma protein binding by equilibrium dialysis (rat); assay type: in vitro ADME, Sprague–Dawley rat; settings: rat plasma, equilibrium dialysis, n = 3
Protocol: as §1

dog plasma proteins = experiment: Plasma protein binding by equilibrium dialysis (dog); assay type: in vitro ADME, Beagle dog; settings: dog plasma, equilibrium dialysis, n = 3
Protocol: as §1

CC(=O)CC(c1ccccc1)c1c(O)c2ccccc2oc1=O (stereo not drawn) [Warf, reference compound]
Mean device recovery % (human plasma proteins): 107.0 ± 0.25% | Mean device recovery % (rat plasma proteins): 107.9 ± 0.03% | Mean device recovery % (dog plasma proteins): 100.7 ± 0.49%
